# Measurements from patent US20240335442A1 (Eurofarma Laboratórios S.A., priority 2021, published 2024).
# Columns and labels:
# [1] = biological target: human sodium channel Nav 1.7 (Homo sapiens (Human), UniProt Q15858); assay: Automated whole-cell voltage-clamp (ScreenPatch 384P), Nav 1.7 sodium current, Protocol 2; format: cell-based; settings: read-out: Nav1.7 IC50
# Method: (§1) Biological assays were performed on Chinese hamster ovary (CHO) cells expressing the human sodium channels Nav 1.8 and Nav 1.7 stably.
# (§2) The experimental voltage-clamp protocol using the whole cell configuration was established on the automated ScreenPatch® 384P platform (SP384PE, Nanion Technologies, Livingston, NJ) and recording of the results was performed with a Nanion 384-well Patch Clamp chip (NPC) (Nanion Technologies, Livingston, NJ).
# (§3) Compounds of Formula (I), were diluted in eight concentrations in the extracellular solution composed of physiological saline, buffered with HEPES (mM): NaCl, 137; KCl, 4; CaCl2, 3.8; MgCl2, 1; HEPES, 10; Glucose, 10; pH 7.4. The […], 50; CsF, 90; MgCl2, 5; EGTA, 5; HEPES, 10; pH 7.2. The duration of exposure of each compound with the cells expressing Nav 1.7 or Nav 1.8 was at least five minutes and the assays were performed at room temperature.
# (§4) The measurements of the sodium currents of Nav 1.8 and Nav 1.7 were obtained using the voltage protocols described below: • Protocol 1: A holding voltage of-90 mV was established followed by a voltage phase of 200 ms to-120 mV, followed by a voltage step of 10 mV for 1 second for Nav 1.8 or 0 mV for Nav 1.7, followed by a step of-100 mV for 20 ms, followed by a step of 20 ms for 10 mV for Nav 1.8 or 0 mV for Nav 1.7 (TP1A) before returning to the holding voltage of-90 mV. • Protocol 2: A holding voltage of-100 mV was established followed by an inactivation voltage step at −40 mV for 8 seconds, followed by a −100 mV step for 20 ms, followed by a 20 ms step for 10 mV for Nav 1.8 or 0 mV for Nav 1.7 (TP1A) before returning to the holding voltage of-100 mV.
# (§5) Protocols were repeated at a frequency of 0.1 Hz (Protocol 1) or 0.05 Hz (Protocol 2) and current amplitude was quantified over the TP1A phase log. The variation in the peak amplitude of the current was evaluated according to the Formula described below, after exposure of the cells expressing the channels, at each concentration of the different compounds:
# (§6) where ITP1A,basal, and ITP1A,molecule represent the entry peaks of sodium currents into TP1A prior to exposure to the compound and in the presence of the compound, respectively.
# (§7) The decrease in peak current amplitude, after exposure of the cells to the compounds, was used to calculate the percent relative blocking of the channels relative to the positive control according to the Formula below: […]
# (§8) where % V and % CP represent the averages of the values of current inhibition with a vehicle (DMSO) and positive controls, respectively. The sodium currents of the positive control were considered as 100%.
# (§9) where [Test] represents the concentration of the evaluated molecule, IC50 is the concentration of the compound that generates half of the maximum inhibition, N is the Hill's coefficient and % Block′ is the percentage of the sodium channel current (Nav 1.8 and Nav 1.7) inhibited at each concentration of the evaluated molecule. Data were obtained by non linear least squares regression with XL fit for Excel (Microsoft, Redmond, WA).
# (§10) Compounds were tested in at least one assay to obtain the IC50 value.
# [2] = biological target: human sodium channel Nav 1.8 (Homo sapiens (Human), UniProt Q9Y5Y9); assay: Automated whole-cell voltage-clamp (ScreenPatch 384P), Nav 1.8 sodium current, Protocol 2; format: cell-based; settings: read-out: Nav1.8 IC50
# Method: as §1, §2, §3, §4, §5, §6, §7, §8, §9, §10
# human sodium channel Nav 1.7, sequence (Q15858 whole entry): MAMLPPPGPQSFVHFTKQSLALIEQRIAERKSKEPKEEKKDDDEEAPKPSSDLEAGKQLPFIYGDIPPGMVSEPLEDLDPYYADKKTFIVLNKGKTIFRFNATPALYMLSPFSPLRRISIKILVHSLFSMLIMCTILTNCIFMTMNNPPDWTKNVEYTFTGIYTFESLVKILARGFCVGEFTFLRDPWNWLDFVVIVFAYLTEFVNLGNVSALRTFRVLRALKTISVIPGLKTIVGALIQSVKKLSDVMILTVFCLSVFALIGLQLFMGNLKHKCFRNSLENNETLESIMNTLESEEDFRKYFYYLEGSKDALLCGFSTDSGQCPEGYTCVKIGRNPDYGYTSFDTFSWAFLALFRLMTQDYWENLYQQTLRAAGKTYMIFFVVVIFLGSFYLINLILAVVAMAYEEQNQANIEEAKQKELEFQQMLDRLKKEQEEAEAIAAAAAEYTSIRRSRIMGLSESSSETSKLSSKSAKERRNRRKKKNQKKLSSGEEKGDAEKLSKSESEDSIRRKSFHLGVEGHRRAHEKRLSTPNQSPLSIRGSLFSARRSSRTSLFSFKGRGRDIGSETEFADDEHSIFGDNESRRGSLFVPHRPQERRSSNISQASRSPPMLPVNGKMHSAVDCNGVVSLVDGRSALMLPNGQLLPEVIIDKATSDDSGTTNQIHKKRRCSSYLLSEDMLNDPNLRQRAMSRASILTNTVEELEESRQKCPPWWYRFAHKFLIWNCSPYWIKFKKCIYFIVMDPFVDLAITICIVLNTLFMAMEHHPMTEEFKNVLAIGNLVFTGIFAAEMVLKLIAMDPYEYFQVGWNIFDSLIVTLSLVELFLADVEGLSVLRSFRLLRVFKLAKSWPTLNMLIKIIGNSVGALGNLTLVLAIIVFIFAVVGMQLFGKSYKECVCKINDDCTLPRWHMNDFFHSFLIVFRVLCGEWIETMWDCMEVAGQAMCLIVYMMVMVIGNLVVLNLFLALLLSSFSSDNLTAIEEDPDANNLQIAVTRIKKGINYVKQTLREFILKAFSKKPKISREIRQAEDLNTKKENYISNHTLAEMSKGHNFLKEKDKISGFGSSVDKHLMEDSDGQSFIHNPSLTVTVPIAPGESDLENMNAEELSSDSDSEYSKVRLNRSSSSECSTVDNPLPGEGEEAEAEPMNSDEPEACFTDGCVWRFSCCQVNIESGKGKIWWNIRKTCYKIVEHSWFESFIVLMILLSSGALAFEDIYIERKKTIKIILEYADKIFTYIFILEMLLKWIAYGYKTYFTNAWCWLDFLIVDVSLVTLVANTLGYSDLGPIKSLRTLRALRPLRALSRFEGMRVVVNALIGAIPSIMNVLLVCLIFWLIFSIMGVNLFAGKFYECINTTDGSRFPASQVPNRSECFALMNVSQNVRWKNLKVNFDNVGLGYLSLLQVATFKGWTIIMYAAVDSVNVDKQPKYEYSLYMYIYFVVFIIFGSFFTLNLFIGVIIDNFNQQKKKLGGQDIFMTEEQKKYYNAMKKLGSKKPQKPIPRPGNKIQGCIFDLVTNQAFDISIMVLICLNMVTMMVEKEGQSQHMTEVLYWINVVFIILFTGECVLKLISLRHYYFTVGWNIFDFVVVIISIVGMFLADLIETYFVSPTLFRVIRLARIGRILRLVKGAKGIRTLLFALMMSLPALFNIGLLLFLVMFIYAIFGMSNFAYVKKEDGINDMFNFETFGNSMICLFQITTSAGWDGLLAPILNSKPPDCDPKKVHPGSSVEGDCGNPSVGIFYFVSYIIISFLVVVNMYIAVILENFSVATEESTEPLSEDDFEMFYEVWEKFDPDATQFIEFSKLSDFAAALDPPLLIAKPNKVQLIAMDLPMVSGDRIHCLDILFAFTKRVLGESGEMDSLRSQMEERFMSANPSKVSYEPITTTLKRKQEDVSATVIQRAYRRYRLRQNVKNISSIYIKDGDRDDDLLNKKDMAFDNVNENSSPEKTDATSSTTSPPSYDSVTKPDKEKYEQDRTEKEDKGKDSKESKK
# human sodium channel Nav 1.8, sequence (Q9Y5Y9 whole entry): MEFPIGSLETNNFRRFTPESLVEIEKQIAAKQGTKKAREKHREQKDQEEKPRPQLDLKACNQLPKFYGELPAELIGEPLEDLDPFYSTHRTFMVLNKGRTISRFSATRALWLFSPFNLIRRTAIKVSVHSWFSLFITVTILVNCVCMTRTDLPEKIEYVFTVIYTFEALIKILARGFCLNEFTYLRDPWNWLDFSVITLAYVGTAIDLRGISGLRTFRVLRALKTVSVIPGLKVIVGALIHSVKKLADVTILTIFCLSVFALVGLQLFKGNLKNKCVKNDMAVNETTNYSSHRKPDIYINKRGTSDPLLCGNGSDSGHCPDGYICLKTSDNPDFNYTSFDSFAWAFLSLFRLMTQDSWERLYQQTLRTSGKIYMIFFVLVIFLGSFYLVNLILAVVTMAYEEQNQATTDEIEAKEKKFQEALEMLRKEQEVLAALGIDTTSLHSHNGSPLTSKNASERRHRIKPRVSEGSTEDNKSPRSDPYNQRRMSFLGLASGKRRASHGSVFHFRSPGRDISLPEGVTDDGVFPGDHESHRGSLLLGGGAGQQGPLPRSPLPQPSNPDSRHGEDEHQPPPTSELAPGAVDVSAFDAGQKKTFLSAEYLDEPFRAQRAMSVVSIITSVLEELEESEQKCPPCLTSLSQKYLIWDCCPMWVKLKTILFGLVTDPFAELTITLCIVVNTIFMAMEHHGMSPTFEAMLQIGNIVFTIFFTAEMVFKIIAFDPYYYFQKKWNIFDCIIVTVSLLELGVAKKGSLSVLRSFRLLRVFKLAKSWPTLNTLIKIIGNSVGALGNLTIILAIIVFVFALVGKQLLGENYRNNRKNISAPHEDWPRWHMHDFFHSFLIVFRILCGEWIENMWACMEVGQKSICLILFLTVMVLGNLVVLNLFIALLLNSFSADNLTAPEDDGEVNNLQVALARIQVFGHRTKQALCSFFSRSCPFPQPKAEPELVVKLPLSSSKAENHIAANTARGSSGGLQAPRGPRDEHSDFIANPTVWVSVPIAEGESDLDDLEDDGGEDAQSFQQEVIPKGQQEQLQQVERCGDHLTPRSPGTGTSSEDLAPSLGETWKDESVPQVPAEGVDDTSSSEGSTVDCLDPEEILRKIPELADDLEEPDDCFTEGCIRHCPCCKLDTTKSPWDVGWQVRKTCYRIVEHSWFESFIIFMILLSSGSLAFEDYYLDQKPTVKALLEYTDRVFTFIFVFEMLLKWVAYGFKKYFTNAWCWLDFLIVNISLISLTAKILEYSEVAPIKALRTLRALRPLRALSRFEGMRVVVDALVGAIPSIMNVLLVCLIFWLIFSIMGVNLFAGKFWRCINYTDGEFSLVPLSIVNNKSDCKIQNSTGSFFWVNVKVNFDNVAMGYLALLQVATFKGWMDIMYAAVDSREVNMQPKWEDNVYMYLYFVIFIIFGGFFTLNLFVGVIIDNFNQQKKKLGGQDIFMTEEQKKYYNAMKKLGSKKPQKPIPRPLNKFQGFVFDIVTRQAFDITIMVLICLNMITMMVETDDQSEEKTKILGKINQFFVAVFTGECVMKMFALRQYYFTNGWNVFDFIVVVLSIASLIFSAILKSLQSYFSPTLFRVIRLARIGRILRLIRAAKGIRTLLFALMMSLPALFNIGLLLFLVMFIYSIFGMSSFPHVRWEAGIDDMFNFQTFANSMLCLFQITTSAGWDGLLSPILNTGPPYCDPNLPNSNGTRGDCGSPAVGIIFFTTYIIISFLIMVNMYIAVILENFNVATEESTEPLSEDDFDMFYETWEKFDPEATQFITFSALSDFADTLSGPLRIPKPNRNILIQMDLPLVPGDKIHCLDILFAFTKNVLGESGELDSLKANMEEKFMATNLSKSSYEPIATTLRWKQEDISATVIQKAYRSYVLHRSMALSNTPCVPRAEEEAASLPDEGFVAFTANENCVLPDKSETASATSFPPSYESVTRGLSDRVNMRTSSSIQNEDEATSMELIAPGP
SMILES,IC50 [1],IC50 [2]
"COc1ccc(-c2cncc(C(=O)N/N=C/c3cccc(OC(C)C)c3)n2)cc1 [Compound 41, (E)-N′-(3-isopropoxybenzylidene)-6-(4-methoxyphenyl)pyrazine-2-carbohydrazide]",3290 nM,94.5 nM
"COc1ccc(-c2cncc(C(=O)N/N=C/c3ccccc3OC)n2)cc1 [Compound 42, (E)-N′-(2-methoxybenzylidene)-6-(4-methoxyphenyl)pyrazine-2-carbohydrazide]",3900 nM,621 nM
"COc1ccc(-c2cncc(C(=O)N/N=C/c3ccccc3F)n2)cc1 [Compound 46, (E)-N′-(2-fluorobenzylidene)-6-(4-methoxyphenyl)pyrazine-2-carbohydrazide]",1990 nM,178 nM
"COc1ccc(-c2cncc(C(=O)N/N=C/c3ccccc3Cl)n2)cc1 [Compound 47, (E)-N′-(2-chlorobenzylidene)-6-(4-methoxyphenyl)pyrazine-2-carbohydrazide]",1420 nM,82 nM
"COc1ccc(-c2cncc(C(=O)N/N=C/c3ccccc3Br)n2)cc1 [Compound 48, (E)-N′-(2-bromobenzylidene)-6-(4-methoxyphenyl)pyrazine-2-carbohydrazide]",798 nM,233 nM
"COc1ccc(-c2cncc(C(=O)N/N=C/c3ccccc3C(F)(F)F)n2)cc1 [Compound 49, (E)-6-(4-methoxyphenyl)-N′-(2-(trifluoromethyl)benzylidene)pyrazine-2-carbohydrazide]",1310 nM,158 nM
"COc1ccc(-c2cncc(C(=O)N/N=C/c3ccccc3C)n2)cc1 [Compound 51, (E)-6-(4-methoxyphenyl)-N′-(2-methylbenzylidene)pyrazine-2-carbohydrazide]",1380 nM,131 nM
"COc1ccc(-c2cncc(C(=O)N/N=C/c3ccccc3C(C)(C)C)n2)cc1 [Compound 52, (E)-N′-(2-(tert-butyl)benzylidene)-6-(4-methoxyphenyl)pyrazine-2-carbohydrazide]",3590 nM,> 1000 nM
"COc1ccc(-c2cncc(C(=O)N/N=C/c3cccc(F)c3)n2)cc1 [Compound 53, (E)-N′-(3-fluorobnezylidene)-6-(4-methoxyphenyl)pyrazine-2-carbohydrazide]",> 10000 nM,441 nM
"COc1ccc(-c2cncc(C(=O)N/N=C/c3cccc(Cl)c3)n2)cc1 [Compound 54, (E)-N′-(3-chlorobenzylidene)-6-(4-methoxyphenyl)pyrazine-2-carbohydrazide]",2910 nM,311 nM
"COc1ccc(-c2cncc(C(=O)N/N=C/c3cccc(Br)c3)n2)cc1 [Compound 55, (E)-N′-(3-bromobenzylidene)-6-(4-methoxyphenyl)pyrazine-2-carbohydraizde]",2190 nM,476 nM
"COc1ccc(-c2cncc(C(=O)N/N=C/c3cccc(C(F)(F)F)c3)n2)cc1 [Compound 56, (E)-6-(4-methoxyphenyl)-N′-(3-(trifluoromethyl)benzylidene)pyrazine-2-carbohydrazide]",5480 nM,462 nM
"COc1ccc(-c2cncc(C(=O)N/N=C/c3cccc(C)c3)n2)cc1 [Compound 58, (E)-6-(4-methoxyphenyl)-N′-(3-methylbenzylidene)pyrazine-2-carbohydrazide]",1050 nM,97 nM
"COc1ccc(-c2cncc(C(=O)N/N=C/c3cccc(C(C)(C)C)c3)n2)cc1 [Compound 59, (E)-N′-(3-(tert-butyl)benzylidene)-6-(4-methoxyphenyl)pyrazine-2-carbohydrazide]",1850 nM,492 nM
"COc1ccc(-c2cncc(C(=O)N/N=C/c3ccc(F)cc3)n2)cc1 [Compound 60, (E)-N′-(4-fluorobenzylidene)-6-(4-methoxyphenyl)pyrazine-2-carbohydrazide]",5190 nM,340 nM
"COc1ccc(-c2cncc(C(=O)N/N=C/c3ccc(Cl)cc3)n2)cc1 [Compound 61, (E)-N′-(4-chlorobenzylidene)-6-(4-methoxyphenyl)pyrazine-2-carbohydrazide]",7020 nM,614 nM

SMILES,IC50 [1],IC50 [2]
"COc1ccc(-c2cncc(C(=O)N/N=C/c3ccc(Br)cc3)n2)cc1 [Compound 62, (E)-N′-(4-bromobenzylidene)-6-(4-methoxyphenyl)pyrazine-2-carbohydrazide]",> 10000 nM,761 nM
"COc1ccc(-c2cncc(C(=O)N/N=C/c3ccc(C(F)(F)F)cc3)n2)cc1 [Compound 63, (E)-6-(4-methoxyphenyl)-N′-(4-(trifluoromethyl)benzylidene)pyrazine-2-carbohydrazide]",> 10000 nM,> 1000 nM
COc1ccc(-c2cncc(C(=O)N/N=C/c3ccc(N(C)C)cc3)n2)cc1 [Compound 64],8160 nM,1000 nM
"COc1ccc(-c2cncc(C(=O)N/N=C/c3ccc(C)cc3)n2)cc1 [Compound 65, (E)-6-(4-methoxyphenyl)-N′-(4-methylbenzylidene)pyrazine-2-carbohydrazide]",6600 nM,800 nM
"COc1ccc(-c2cncc(C(=O)N/N=C/c3ccc(C(C)(C)C)cc3)n2)cc1 [Compound 66, (E)-N′-(4-(tert-butyl)benzylidene)-6-(4-methoxyphenyl)pyrazine-2-carbohydrazide]",> 10000 nM,> 1000 nM
"CCOc1cc(/C=N/NC(=O)c2cncc(-c3ccc(OC)cc3)n2)cc(OCC)c1 [Compound 67, (E)-N′-(3,5-diethoxybenzylidene)-6-(4-methoxyphenyl)pyrazine-2-carbohydrazide]",1930 nM,747 nM
"COc1ccc(-c2cncc(C(=O)N/N=C/c3cc(C(F)(F)F)cc(C(F)(F)F)c3)n2)cc1 [Compound 73, (E)-N′-(3,5-bis(trifluoromethyl)benzylidene)-6-(4-methoxyphenyl)pyrazine-2-carbohydrazide]",> 10000 nM,777 nM
"COc1ccc(-c2cncc(C(=O)N/N=C/c3cc(C(C)(C)C)cc(C(C)(C)C)c3)n2)cc1 [Compound 76, (E)-N′-(3,5-di-tert-butylbenzylidene)-6-(4-methoxyphenyl)pyrazine-2-carbohydrazide]",> 10000 nM,> 1000 nM
"COc1ccc(-c2cncc(C(=O)N/N=C/c3cccnc3)n2)cc1 [Compound 77, (E)-6-(4-methoxyphenyl)-N′-(pyridin-3-ylmethylene)pyrazine-2-carbohydrazide]",> 10000 nM,> 1000 nM
"COc1ccc(-c2cncc(C(=O)N/N=C/c3ccc(OC)cc3OC)n2)cc1 [Compound 78, (E)-N′-(2,4-dimethoxybenzylidene)-6-(4-methoxyphenyl)pyrazine-2-carbohyrazide]",7150 nM,841 nM
"COc1ccc(-c2cncc(C(=O)N/N=C/c3c(OC)cccc3OC)n2)cc1 [Compound 79, (E)-N′-(2,6-dimethoxybenzylidene)-6-(4-methoxyphenyl)pyrazine-2-carbohydrazide]",> 10000 nM,> 1000 nM
"COc1ccc(-c2cncc(C(=O)N/N=C/c3ccc(OC)c(OC)c3OC)n2)cc1 [Compound 82, (E)-6-(4-methoxyphenyl)-N′-(2,3,4-trimethoxybenzylidene)pyrazine-2-carbohydrazide]",2770 nM,> 1000 nM
CCCCOc1ccc(-c2cncc(C(=O)N/N=C/c3cc(OC)cc(OC)c3)n2)cc1 [Compound 83],135 nM,103 nM
"CCCCOc1ccc(-c2cncc(C(=O)N/N=C/c3cc(C)cc(C)c3)n2)cc1 [Compound 84, (E)-6-(4-butoxyphenyl)-N′-(3,5-dimethylbenzylidene)pyrazine-2-carbohydrazide]",179 nM,152 nM
"COc1cc(/C=N/NC(=O)c2cncc(-c3ccc(OCC(C)C)cc3)n2)cc(OC)c1 [Compound 85, (E)-N′-(3,5-dimethoxybenzylidene)-6-(4-isobutoxyphenyl)pyrazine-2-carbohydrazide]",159 nM,31.8 nM
